Experimental data taken from PubChem BioAssay (NCI).
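Following 48 hours of exposure in 96-well plates, responses at five concentrations were used to interpolate endpoints linearly. Abbreviation: GI50, concentration required for 50% inhibition of growth. Definition used: TGI = concentration required for complete inhibition of growth.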

What was measured:
Experiment in all cases: NCI-60 cell line screen, 48 h
ACHN renal = tested on: ACHN renal
OVCAR-3 ovarian = tested on: OVCAR-3 ovarian
MCF7 breast = tested on: MCF7 breast
MOLT-4 leukemia = tested on: MOLT-4 leukemia
SW-620 colon = tested on: SW-620 colon
NCI/ADR-RES ovarian = tested on: NCI/ADR-RES ovarian
PC-3 prostate = tested on: PC-3 prostate
MALME-3M melanoma = tested on: MALME-3M melanoma
M14 melanoma = tested on: M14 melanoma
UACC-62 melanoma = tested on: UACC-62 melanoma
COLO 205 colon = tested on: COLO 205 colon
HOP-62 NSCLC = tested on: HOP-62 NSCLC
CAKI-1 renal = tested on: CAKI-1 renal
SN12C renal = tested on: SN12C renal
EKVX NSCLC = tested on: EKVX NSCLC
IGROV1 ovarian = tested on: IGROV1 ovarian
HCT-15 colon = tested on: HCT-15 colon
OVCAR-8 ovarian = tested on: OVCAR-8 ovarian
LOX IMVI melanoma = tested on: LOX IMVI melanoma
UO-31 renal = tested on: UO-31 renal
CCRF-CEM leukemia = tested on: CCRF-CEM leukemia
HS 578T breast = tested on: HS 578T breast
U251 CNS = tested on: U251 CNS
SF-539 CNS = tested on: SF-539 CNS
KM12 colon = tested on: KM12 colon
OVCAR-5 ovarian = tested on: OVCAR-5 ovarian
SK-OV-3 ovarian = tested on: SK-OV-3 ovarian
HL-60(TB) leukemia = tested on: HL-60(TB) leukemia
A549 NSCLC = tested on: A549 NSCLC
HOP-92 NSCLC = tested on: HOP-92 NSCLC
DU-145 prostate = tested on: DU-145 prostate
SF-268 CNS = tested on: SF-268 CNS
NCI-H23 lung = tested on: NCI-H23 lung
SF-295 CNS = tested on: SF-295 CNS
SK-MEL-28 melanoma = tested on: SK-MEL-28 melanoma
BT-549 breast = tested on: BT-549 breast
786-0 renal = tested on: 786-0 renal
HCT-116 colon = tested on: HCT-116 colon
TK-10 renal = tested on: TK-10 renal
HT29 colon = tested on: HT29 colon
NCI-H226 lung = tested on: NCI-H226 lung
NCI-H522 lung = tested on: NCI-H522 lung
SK-MEL-5 melanoma = tested on: SK-MEL-5 melanoma
RPMI-8226 leukemia = tested on: RPMI-8226 leukemia
MDA-MB-231 breast = tested on: MDA-MB-231 breast
MDA-MB-435 = tested on: MDA-MB-435
HCC-2998 colon = tested on: HCC-2998 colon
SK-MEL-2 melanoma = tested on: SK-MEL-2 melanoma
OVCAR-4 ovarian = tested on: OVCAR-4 ovarian
T-47D breast = tested on: T-47D breast
UACC-257 melanoma = tested on: UACC-257 melanoma
NCI-H460 lung = tested on: NCI-H460 lung
SR leukemia = tested on: SR leukemia
SNB-75 CNS = tested on: SNB-75 CNS
SNB-19 CNS = tested on: SNB-19 CNS
K-562 leukemia = tested on: K-562 leukemia
A498 renal = tested on: A498 renal

O=c1n(-c2ccccc2)c(=O)n2n1C1C=CC2CCCCCC1
TGI (ACHN renal): > 100 µM | TGI (OVCAR-3 ovarian): > 100 µM | TGI (MCF7 breast): > 100 µM | TGI (MOLT-4 leukemia): > 100 µM | TGI (SW-620 colon): > 100 µM | TGI (NCI/ADR-RES ovarian): > 100 µM | TGI (PC-3 prostate): > 100 µM | TGI (MALME-3M melanoma): > 100 µM | TGI (M14 melanoma): > 100 µM | TGI (UACC-62 melanoma): > 100 µM | TGI (COLO 205 colon): > 100 µM | TGI (HOP-62 NSCLC): > 100 µM | TGI (CAKI-1 renal): > 100 µM | TGI (SN12C renal): > 100 µM | TGI (EKVX NSCLC): > 100 µM | TGI (IGROV1 ovarian): > 100 µM | TGI (HCT-15 colon): > 100 µM | TGI (OVCAR-8 ovarian): > 100 µM | TGI (LOX IMVI melanoma): > 100 µM | TGI (UO-31 renal): > 100 µM | TGI (CCRF-CEM leukemia): > 100 µM | TGI (HS 578T breast): > 100 µM | TGI (U251 CNS): > 100 µM | TGI (SF-539 CNS): > 100 µM | TGI (KM12 colon): > 100 µM | TGI (OVCAR-5 ovarian): > 100 µM | TGI (SK-OV-3 ovarian): > 100 µM | TGI (HL-60(TB) leukemia): > 100 µM | TGI (A549 NSCLC): > 100 µM | TGI (HOP-92 NSCLC): > 100 µM | TGI (DU-145 prostate): > 100 µM | TGI (SF-268 CNS): > 100 µM | TGI (NCI-H23 lung): > 100 µM | TGI (SF-295 CNS): > 100 µM | TGI (SK-MEL-28 melanoma): > 100 µM | TGI (BT-549 breast): > 100 µM | TGI (786-0 renal): > 100 µM | TGI (HCT-116 colon): > 100 µM | TGI (TK-10 renal): > 100 µM | TGI (HT29 colon): > 100 µM | TGI (NCI-H226 lung): > 100 µM | TGI (NCI-H522 lung): > 100 µM | TGI (SK-MEL-5 melanoma): > 100 µM | TGI (RPMI-8226 leukemia): > 100 µM | TGI (MDA-MB-231 breast): > 100 µM | TGI (MDA-MB-435): > 100 µM | TGI (HCC-2998 colon): > 100 µM | TGI (SK-MEL-2 melanoma): > 100 µM | TGI (OVCAR-4 ovarian): > 100 µM | TGI (T-47D breast): > 100 µM | TGI (UACC-257 melanoma): > 100 µM | TGI (NCI-H460 lung): > 100 µM | TGI (SR leukemia): > 100 µM | TGI (SNB-75 CNS): > 100 µM | TGI (SNB-19 CNS): > 100 µM

COc1cc(NC(=O)c2ccc(C(F)(F)F)nc2Nc2ccc(Cl)cc2C)cc(OC)c1OC
GI50 (ACHN renal): 3.74 µM | TGI (ACHN renal): 35.5 µM | GI50 (OVCAR-3 ovarian): 2.41 µM | TGI (OVCAR-3 ovarian): 13.3 µM | GI50 (MCF7 breast): 2.39 µM | TGI (MCF7 breast): 16.2 µM | GI50 (MOLT-4 leukemia): 2.54 µM | TGI (MOLT-4 leukemia): 18.2 µM | GI50 (SW-620 colon): 5.92 µM | TGI (SW-620 colon): 18.8 µM | GI50 (NCI/ADR-RES ovarian): 3.62 µM | TGI (NCI/ADR-RES ovarian): 17.1 µM | GI50 (PC-3 prostate): 1.86 µM | TGI (PC-3 prostate): 10.5 µM | GI50 (MALME-3M melanoma): 4.94 µM | TGI (MALME-3M melanoma): 24 µM | GI50 (M14 melanoma): 4.14 µM | TGI (M14 melanoma): 18.9 µM | GI50 (UACC-62 melanoma): 3.05 µM | TGI (UACC-62 melanoma): 15.9 µM | GI50 (COLO 205 colon): 4.06 µM | TGI (COLO 205 colon): 15.5 µM | GI50 (HOP-62 NSCLC): 5.95 µM | TGI (HOP-62 NSCLC): 18.2 µM | GI50 (CAKI-1 renal): 3.36 µM | TGI (CAKI-1 renal): 9.85 µM | GI50 (SN12C renal): 6.75 µM | TGI (SN12C renal): 31 µM | GI50 (EKVX NSCLC): 6.34 µM | TGI (EKVX NSCLC): > 100 µM | GI50 (IGROV1 ovarian): 0.958 µM | TGI (IGROV1 ovarian): 23 µM | GI50 (HCT-15 colon): 4.35 µM | TGI (HCT-15 colon): 21.2 µM | GI50 (OVCAR-8 ovarian): 6.19 µM | TGI (OVCAR-8 ovarian): > 100 µM | GI50 (LOX IMVI melanoma): 3.23 µM | TGI (LOX IMVI melanoma): 13.5 µM | GI50 (UO-31 renal): 2.68 µM | TGI (UO-31 renal): 17.9 µM | GI50 (CCRF-CEM leukemia): 1.58 µM | TGI (CCRF-CEM leukemia): 29.5 µM | GI50 (HS 578T breast): 4.65 µM | TGI (HS 578T breast): 38.7 µM | GI50 (U251 CNS): 4.86 µM | TGI (U251 CNS): 17.5 µM | GI50 (SF-539 CNS): 10.6 µM | TGI (SF-539 CNS): > 100 µM | GI50 (KM12 colon): 1.55 µM | TGI (KM12 colon): 13.2 µM | GI50 (K-562 leukemia): 3.01 µM | TGI (K-562 leukemia): > 100 µM | GI50 (OVCAR-5 ovarian): 10.8 µM | TGI (OVCAR-5 ovarian): 27.7 µM | GI50 (SK-OV-3 ovarian): 5.15 µM | TGI (SK-OV-3 ovarian): 36.1 µM | GI50 (HL-60(TB) leukemia): 1.76 µM | TGI (HL-60(TB) leukemia): 15.2 µM | GI50 (A549 NSCLC): 5.82 µM | TGI (A549 NSCLC): > 100 µM | GI50 (DU-145 prostate): 11.7 µM | TGI (DU-145 prostate): 57.3 µM | GI50 (SF-268 CNS): 6.67 µM | TGI (SF-268 CNS): 28.9 µM | GI50 (NCI-H23 lung): 2.2 µM | TGI (NCI-H23 lung): 10.6 µM | GI50 (SF-295 CNS): 5.36 µM | TGI (SF-295 CNS): 23.1 µM | GI50 (SK-MEL-28 melanoma): 4.4 µM | TGI (SK-MEL-28 melanoma): 26.4 µM | GI50 (BT-549 breast): 10.7 µM | TGI (BT-549 breast): 26.6 µM | GI50 (786-0 renal): 5.56 µM | TGI (786-0 renal): 22.4 µM | GI50 (HCT-116 colon): 3.14 µM | TGI (HCT-116 colon): 13.4 µM | GI50 (TK-10 renal): 5.83 µM | TGI (TK-10 renal): 29.1 µM | GI50 (HT29 colon): 4.92 µM | TGI (HT29 colon): 19.3 µM | GI50 (NCI-H226 lung): 10.8 µM | TGI (NCI-H226 lung): 31.7 µM | GI50 (NCI-H522 lung): 1.61 µM | TGI (NCI-H522 lung): 14.4 µM | GI50 (SK-MEL-5 melanoma): 2.95 µM | TGI (SK-MEL-5 melanoma): 14.9 µM | GI50 (RPMI-8226 leukemia): 2.96 µM | TGI (RPMI-8226 leukemia): 17.5 µM | GI50 (MDA-MB-231 breast): 3.73 µM | TGI (MDA-MB-231 breast): 14.8 µM | GI50 (MDA-MB-435): 4.19 µM | TGI (MDA-MB-435): 21.3 µM | GI50 (HCC-2998 colon): 1.89 µM | TGI (HCC-2998 colon): 5.61 µM | GI50 (SK-MEL-2 melanoma): 10.3 µM | TGI (SK-MEL-2 melanoma): 28.3 µM | GI50 (OVCAR-4 ovarian): 2.77 µM | TGI (OVCAR-4 ovarian): 25.3 µM | GI50 (A498 renal): 3.9 µM | TGI (A498 renal): 23.8 µM | GI50 (T-47D breast): 2.47 µM | TGI (T-47D breast): 21.3 µM | GI50 (UACC-257 melanoma): 3.4 µM | TGI (UACC-257 melanoma): 19.3 µM | GI50 (NCI-H460 lung): 3.3 µM | TGI (NCI-H460 lung): 12.9 µM | GI50 (SR leukemia): 2.77 µM | TGI (SR leukemia): 13.5 µM | GI50 (SNB-75 CNS): 2.78 µM | TGI (SNB-75 CNS): 18.5 µM | GI50 (SNB-19 CNS): 5.77 µM | TGI (SNB-19 CNS): 48.9 µM
